Laboratory results taken from US6632794B1, “Insulin-like growth factor agonist molecules” (Genentech, Inc., priority 1997, dated 2003).

What was measured:
[1] = test system: mouse 3T3 cells; test: ^3H-thymidine incorporation into mouse 3T3 cells; type: cell-based
Description: Assay 2: Increase in Cell Number of Mouse 3T3 Cells
The activity of the IGF mutant was also measured in a bioassay for the activity of IGF-I on DNA synthesis and cell replication. In this assay mouse 3T3 cells are cultured, and the IGF mutant or IGF-I is added, followed by tritiated ^3H-thymidine. The amount of ^3H-thymidine incorporated is a measure of the replication of DNA and thus of cell replication.

[2] = target: IGFBP-3 (Homo sapiens, UniProt P17936); test: ^125I-IGF-I competitive binding plate assay, IGFBP-3; conditions: displacement of ^125I-IGF-I, FIG. 7
Description: The mutant (Leu^24,Ala^31)hIGF-I was also tested for its ability to displace radio-labeled rhIGF-I off the IGFBPs in a competitive binding assay. This assay involves coating recombinant human (rh) IGFBP-1 or rhIGFBP-3 (160 ng/ml) onto 96-well plates overnight, blocking the plates for one hour with 0.5% BSA, adding rhIGF-I (250-0.08 ng/ml) or (Leu^24,Ala^31)hIGF-I for 1 hour, then adding 20,000 cpm of ^125I-IGF-I and incubating for 2 hours before washing and counting.
As an additional assay of peptide activity, several peptides were tested in an assay using ^125I-labeled IGF-I to measure inhibition of IGFBP binding, as described in Example 1 (Assay 3). Serial dilutions of peptide were added to an IGFBP-1 or an IGFBP-3 plate. Thereafter, ^125I-labeled IGF-I was added and the plates were incubated for 2 hours. The plates were then washed and counted to determine the amount of bound IGF-I.

[3] = test system: hypophysectomized rats; test: Long-term administration to hypophysectomized rats; type: in vivo, rat; conditions: one week
Source text: Young female SD rats were hypophysectomized at Taconic Laboratories and delivered several days later. The rats were then weighed frequently and those whose weight increased or decreased by more than 7 grams between 2 and 3 weeks following hypophysectomy were excluded from the study. Twenty-five rats were grouped randomly into five groups based on their body weight, and then randomly assigned to cages, with four rats per cage. The animals were allowed ad libitum access to food and water and housed in a room controlled for temperature and lighting.
1) Excipient pump, excipient injections;
2) (Leu^24,Ala^31)hIGF-I (10 μg/day, by SC minipump), excipient injections;
3) (Leu^24,Ala^31)hIGF-I (50 μg/day, by SC minipump), excipient injections;
4) Recombinant human GH (NUTROPIN™ brand from Genentech, Inc., 20 μg/day, by SC injection, two injections each of 10 μg/day), excipient minipump; or
5) (Leu^24,Ala^31)hIGF-I (50 μg/day, by SC minipump) plus recombinant human GH (20 μg/day, by SC injection, two injections each of 10 μg/day).
The rats were dosed for one week.
The mutant (Leu^24,Ala^31)hIGF-I was administered by osmotic minipumps (ALZET 2001™, Alza, Palo Alto, Calif.), which were placed in a subcutaneous tunnel in the dorsal neck region of the rats while they were anesthetized with KETAMINE™/XYLAZINE™ anesthesia. The pumps were filled with solutions so that the calculated daily dose was 50 μg or 10 μg, assuming that 24 μl of solution was delivered each day for one week.
Recombinant human GH was administered for one week by twice daily SC injections of 10 μg in 100 μl volume.
Body weights were measured daily in the morning. At the end of the week of dosing the animals were anesthetized via CO2 and exsanguinated via cardiac puncture. The remaining blood was allowed to clot and serum was separated and stored for further analysis.
(§1) Spleen, thymus, heart, liver, kidney, and perirenal fat were removed and weighed. The tibia was removed and fixed in neutral buffered formalin for histological measurement of epiphyseal plate width.
Serum chemistries were measured on an automated Chem I analyzer. Serum insulin concentration was measured using an RIA Kit supplied by Linco, Inc. To measure the IGF-I concentrations the serum was extracted using acid ethanol and the supernatant diluted to neutrality and assayed for IGF-I by RIA.
Tibia were sectioned longitudinally, stained with Toluene Blue, and mounted on microscope slides. The tibial epiphyseal plate width was measured using an ocular micrometer attached to a microscope.
Data were analyzed statistically by analysis of variance using one factor and two factor ANOVA.

[4] = test system: dwarf rats; test: Long-term administration to GH-deficient dwarf (dw/dw) rats; type: in vivo, rat; conditions: for retroperitoneal fat depot weight: at sacrifice; for AST / BUN / CK / Creatinine / Glucose / Insulin: serum at sacrifice, Means ± SEM
Source text: Young female dwarf rats (11-12 wk of age, 115-140 g) were bred by homozygous mating (Charles Rivers Laboratories) and delivered to the Genentech Animal House where they were housed five per cage on polystyrene chips and fed a standard animal chow and water ad libitum, and kept in a room of constant humidity and with controlled temperature and lighting. The animals were weighed, and based on uniformity of body weight, 37 of the animals were selected and randomized into treatment groups and cages to give six treatment groups of equal initial body weights (approximately 120 g).
The study consisted of six groups of rats with six or seven rats per group.
The mutant (Leu^24,Ala^31)hIGF-I and native sequence recombinant human IGF-I were administered by osmotic minipumps (ALZET 2001™, Alza, Palo Alto, Calif.) which were placed in a subcutaneous tunnel in the dorsal neck region while the rats were anesthetized with KETAMINE/XYLAZINE™ anesthesia. The pumps were filled with solutions so that the calculated daily dose was 120 μg per rat per day (1 mg/kg/day), assuming that the pump delivered as per the manufacturer's description (24 μl of solution per day).
Recombinant human GH (50 μg/day) was administered for eight days by twice daily sc injection, with each injection being of 25 μg in a volume of 100 μl.
Body weights were measured daily in the morning. After 8 days the animals were anesthetized using CO2 and exsanguinated by cardiac puncture. The remaining blood was allowed to clot and serum was separated and stored for further analysis.
as §1
Serum chemistries were measured using a TECHNICON CHEM I PLUS™ analyzer. Serum insulin concentration was measured using an RIA kit supplied by Linco, Inc. To measure the IGF-I concentrations the serum was extracted using acid ethanol and the supernatant diluted to neutrality and assayed for IGF-I by RIA. The concentration of rat IGF-I in serum extract was measured by RIA using a kit from Diagnostic Systems Laboratories, Inc. Human IGF-I concentration was measured by RIA at Genentech, Inc.
Tibia were sectioned longitudinally, stained with TOLULENE BLUE™ stain and mounted on microscope slides. The tibial epiphyseal plate width was measured using an ocular micrometer attached to a microscope.
Data were analyzed statistically by analysis of variance using one-factor ANOVA followed by Duncan's Range Test.

[5] = Day one, 120 μg/day each by pump

Sequence of IGFBP-3 (P17936 28-291): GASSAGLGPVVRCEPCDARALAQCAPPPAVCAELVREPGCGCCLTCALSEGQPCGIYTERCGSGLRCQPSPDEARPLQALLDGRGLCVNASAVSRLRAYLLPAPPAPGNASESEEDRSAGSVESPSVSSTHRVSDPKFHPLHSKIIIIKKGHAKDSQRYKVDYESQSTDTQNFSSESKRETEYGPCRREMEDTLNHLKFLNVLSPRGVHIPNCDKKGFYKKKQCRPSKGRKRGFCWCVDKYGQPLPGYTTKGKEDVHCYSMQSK

| Substance | ^3H-thymidine incorporation [1] | epiphyseal plate widths ([4]; 8 days) | body weight gain [4, 5] | retroperitoneal fat depot weight ([4]; 120 μg/day each by pump) | AST ([4]; 8 days) | BUN ([4]; 8 days) | CK ([4]; 8 days) | Creatinine ([4]; 8 days) | Glucose ([4]; 8 days) | Insulin ([4]; 8 days) | also measured |
| --- | --- | --- | --- | --- | --- | --- | --- | --- | --- | --- | --- |
| (Leu^24,Ala^31)hIGF-I | no activity | increased the mean plate widths compared to the individual treatments, but these increases did not reach statistical significance | 0.5 ± 0.6 g | 0.53 ± 0.10 g | 143 ± 8 U/l | 17.8 ± 0.4 mg/dL | 301 ± 44 u/l | 0.23 ± 0.03 mg/dL | 174 ± 18 mg/dL | 0.88 ± 0.09 ng/mL | binding affinity to recombinant IGFBP-3 [2]: affinity only several fold different from that of wild-type hIGF-I; blood levels of endogenous rat IGF-I [3]: lower; total IGF-I (rat and human) in blood ([3]; IGF agonist 10 μg): not a rise in total IGF; body weight gain ([3]; IGF agonist 10 μg/day SC minipump): mean weight gain that was numerically smaller than that of the control group; total IGF-I (rat and human) in blood ([3]; IGF agonist 50 μg alone or with GH): rise in total IGF-I; body weight gain ([3]; IGF agonist 50 μg/day SC minipump, hGH 20 μg/day SC, or both): only a small amount of activity; absolute thymus weight ([3]; IGF agonist 50 μg/day, hGH 20 μg/day, or both): increased; absolute and relative heart weight ([3]; IGF agonist 10 and 50 μg, hGH 20 μg/day, or combination): significant increase in the absolute and the relative size of the heart; absolute spleen weight ([3]; IGF mutant 10 and 50 μg/day, hGH 20 μg/day, or hGH plus 50 μg/day): increased by both doses; bone growth (tibial epiphyseal plate width) ([3]; low-dose mutant (10 μg/day)): did not increase bone growth; bone growth (tibial epiphyseal plate width) ([3]; mutant 50 μg/day alone or with rhGH): significant increase in bone growth; blood levels of endogenous rat IGF-I ([4]; 8 days): lower; absolute spleen weight ([4]; 8 days, 120 μg/day by pump): 350 ± 14 mg; body weight gain ([4]; day 6, 120 μg/day by pump): 4.2 ± 0.6 g |
| IGF-I: native-sequence recombinant human insulin-like growth factor-I (Genentech) | increased thymidine incorporation in a dose-related manner | significantly (p<0.05) increased | 1.2 ± 0.4 g | 0.48 ± 0.06 g | 128 ± 11 U/l | 16.0 ± 0.7 mg/dL | 225 ± 18 u/l | 0.22 ± 0.05 mg/dL | 190 ± 24 mg/dL | 0.54 ± 0.06 ng/mL |  |
